Laboratory results as given in patent publication US12233129B2, “Methods and compositions for the treatment of cancer” (priority 2019, dated 2025).
“Also recorded” adds a separate entry of the source. Read-outs that look alike come from different tables or passages of the source.

Experiments:
[1] = system: LoVo; assay: Annexin V early apoptosis, VTD plus etoposide; assay type: cell-based, human; details: VTD 10-200 μM plus etoposide 5 μM, 24 hours
Method: (§1) The viability of cells was calculated as % of control.
(§2) Cells were then stained with Annexin V apoptotic marker.

[2] = system: HCT-116; assay: Annexin V early apoptosis, VTD plus etoposide; assay type: cell-based, human; details: VTD 10-200 μM plus etoposide 5 μM, 24 hours
Method: as §1, §2

[3] = system: SW-48 (WT-p53) colon cancer cells; assay: Cell viability / clonogenic survival with and without mot-2 inhibitor MKT-077; assay type: cell-based, human; set-up: dose or concentration left out as unconfirmed
Method: We decided to confirm whether VTD-induced tumor suppression is indeed mediated via the UBXN2A-mot-2-p53 axis (FIG. 18H). After initial verification with WB (FIG. 18A), HCT-116 (p53+/+ and p53 −/−) and LoVo were treated with VTD for 24, 48, and 72 hours (FIG. 18B-D). […] We defined this phenomenon as a delayed cytotoxic response, since it occurs through UBXN2A transcription, as previously described for other anti-cancer agents. […] In the second set of experiments, we treated two stable UBXN2A silenced clones of HCT-116 along with controls with VTD. […] Staurosporine-treated cells were used as a positive control (S4F). […] Finally, to understand the contribution of mot-2 to the anti-cancer mechanism of VTD, we used a mot-2 inhibitor known as MKT-077 [7] along with VTD in well-differentiated SW-48 (WT-p53) colon cancer cells for 72 hours. Due to the critical role of mot-2 in the mitochondria, we could not use a silencing strategy for mot-2 in this set of experiments.
FIG. 18: Veratridine (VTD) functions via the UBXN2A-mot-2-p53 axis. (A) WB confirmed the presence and the absence of p53 protein in HCT-116 p53^(+/+) and HCT-116 p53^(−/−) cancer cell lines, respectively. […] (F) In another set of experiments, UBXN2A-silenced cells were treated with VTD (100, 200, and 300 μM) for 24 hours. Cells were then labelled with Sytox Red followed by flow cytometry analysis. […] (G) SW48 well-differentiated colon cancer cells with WT-p53 were treated with MKT-077 (5 mg/ml), an mot-2 inhibitor, along with VTD for 72 hours. […] (H) This flowchart recapped the sequence of proteins which activate and function upon VTD exposure to decrease cell viability. The data is shown as mean±SEM of three independent experiments (n=3) in triplicate where *p<0.05 using Benferroni's modified student's t-test.

[4] = system: Rictor; assay: Flow cytometry with anti-Rictor antibody in SW480 cells; assay type: cell-based, human; details: VTD 5 days (semi-chronic treatment), N=3
Method: In panels A-E, SW480 cells were treated with VTD for 5 days (a semi-chronic treatment) and the cells were collected and subjected to flow-cytometry analysis using anti-Rictor antibody.

[5] = system: LoVo
Method: (§3) Besides the cell viability assay, we decided to measure the apoptotic activity in the above combination therapy.
(§4) Cells were treated with 5-FU (5-100 μM) and etoposide (1-50 μM) along with VTD (30 and 100 μM respectively) in two different set of experiments for 24 hours.
(§5) An MTT (3[4, 5-dimethylthiazol-2-yl]-2, 5-diphenyltetrazolium bromide) assay was performed to measure the viability of cells. Briefly, cells were seeded at a density of 10×10^3 cells per well in phenol-red free growth media. After 24 hours, cells were treated with various concentrations of VTD±5-FU or etoposide. After incubation, an MTT dye was added to the cells for 2-4 hours. The absorbance of samples was measured at 630 nm using an EXL808 absorption spectrophotometer (Biotek, Winooski). The viability of cells was calculated as % of control. Cell detachment and clonogenic survival assays were conducted as previously described. Early apoptosis, caspase-3, cleaved PARP and Sytox Red (Life Technology, NY, USA) were measured by the Accuri C6 flow cytometer system (BD Pharmingen, MD, USA).[54]
(§6) (A-H) (A-C) HCT-116 and (D-F) LoVo were treated with VTD (10-300 μM) for 24, 48, and 72 hours. A suboptimal dose of Etoposide (ETO) ([…]) was added to cells for the last 24 hours only. The viability of cells was determined as % of control (untreated cells) using an MTT assay. […] (G-H) HCT-116 (G) and LoVo (H) cells were treated with VTD (10-200 μM) and a suboptimal dose of ETO (5 μM) for 24 hours. Cells were then stained with Annexin V apoptotic marker. […] (I-L) HCT-116 and LoVo cells were treated with different doses of 5-FU (5-100 μM, I-J) and ETO (1-50 μM, K-L) along with VTD (30 μM and 100 μM respectively) for 24 hours.

[6] = system: HCT-116
Method: as §3, §4, §5, §6

[7] = 5-FU 5-100 μM along with VTD 100 μM, 24 hours
[8] = VTD 10-300 μM 24, 48, 72 hours plus suboptimal etoposide 5 μM for the last 24 hours
[9] = etoposide 1-50 μM along with VTD 30 μM, 24 hours
[10] = higher concentrations of VTD with etoposide 5 μM
[11] = low doses of VTD with etoposide, antagonistic

SMILES: COc1ccc(C(=O)O[C@H]2CC[C@@]3(C)[C@@H]4CC[C@H]5[C@]6(O)C[C@H](O)[C@@]7(O)[C@@H](CN8C[C@@H](C)CC[C@H]8[C@@]7(C)O)[C@]6(O)C[C@@]53O[C@]24O)cc1OC [VTD, Veratridine]
- early apoptosis (Annexin V) [1]: significantly increased the early apoptosis
- early apoptosis (Annexin V) [2]: significantly increased the early apoptosis
- cell viability / colony number ([3]; VTD alone, 72 hours): significantly decreased cell viability in a dose-dependent manner; also recorded: signifcantly decreases the colony number
- cell viability / colony number ([3]; VTD with mot-2 inhibitor MKT-077, 72 hours): no significant effect on cell viability
- level of Rictor proteins [4]: significantly decreases Rictor proteins
- combination index (CI) ([5]; 5-FU 5 μM with 100 μM VTD): 0.32
- cell viability (MTT), 5-FU effect enhanced by VTD [5, 7]: significantly enhanced the 5-FU and etoposide effects on cell viability
- cell viability (MTT), combination [5, 8]: significantly potentiates the cytotoxic effect of VTD
- combination index (CI) ([5]; etoposide 1 μM with 30 μM VTD): 0.275
- VTD concentration at which VTD and etoposide start to act synergistically ([5]; etoposide 5 μM): 100 µM
- cell viability (MTT), etoposide effect enhanced by VTD [5, 9]: significantly enhanced the 5-FU and etoposide effects on cell viability
- combination index (CI) [5, 10]: ≤ 0.4
- combination index (CI) [5, 11]: > 1
- combination index (CI) ([6]; 5-FU 75 μM combined with 100 μM VTD): 0.165
- combination index (CI) ([6]; 5-FU 100 μM combined with 100 μM VTD): 0.109
- cell viability (MTT), 5-FU effect enhanced by VTD [6, 7]: significantly enhanced the 5-FU and etoposide effects on cell viability
- combination index (CI) ([6]; VTD 30 μM with etoposide 5 μM): 0.516
- cell viability (MTT), combination [6, 8]: significantly potentiates the cytotoxic effect of VTD
- cell viability (MTT), etoposide effect enhanced by VTD [6, 9]: significantly enhanced the 5-FU and etoposide effects on cell viability
- combination index (CI) [6, 10]: ≤ 0.4
- combination index (CI) [6, 11]: > 1
